Source: patent US20150182434A1, “COSMETIC USE OF NAPTHOIC ACID DERIVATIVES” (Avon Products, Inc., priority 2013, published 2015)

Molecular target: T1, recombinant human (rh) KLK5 (Homo sapiens, UniProt Q9Y337)
T1 construct: purchased R&D Systems 1108-SE
T1 sequence (Q9Y337 23-293): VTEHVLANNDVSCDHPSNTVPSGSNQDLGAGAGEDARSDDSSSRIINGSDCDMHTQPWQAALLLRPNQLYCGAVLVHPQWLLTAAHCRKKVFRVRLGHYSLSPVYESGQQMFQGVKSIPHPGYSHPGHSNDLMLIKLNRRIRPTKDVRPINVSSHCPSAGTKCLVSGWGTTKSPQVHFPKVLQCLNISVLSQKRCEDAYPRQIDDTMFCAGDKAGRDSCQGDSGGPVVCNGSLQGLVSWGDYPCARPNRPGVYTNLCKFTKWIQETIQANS
Assay: Enzymatic activity of KLK5 (fluorogenic peptide substrate Boc-V-P-R-AMC)
Type: biochemical
Conditions: FIG. 1; for KLK5 activity compared to that of salicylic acid: rhKLK5, rate of enzyme activity relative to salicylic acid
Source text: In the stratum corneum, skin's outermost layer, cell-to-cell cohesion depends primarily on proteins known as the corneodesmosomes. During skin remodeling and renewal dead cells are shed from the skin surface by the action of native proteases that break down the corneodesmosomes. […] Hypothetically, up-regulation of the activities of these proteases using different active candidates could be utilized to increase the rate of shedding of dead skin, thus providing a natural means for skin exfoliation. To this end, the enzymatic activity of a member of the KLK family, recombinant human (rh) KLK5, was monitored following pre-incubation with actives and measuring the rate of peptide bond cleavage of a synthetic substrate.
Enzymatic activity of KLK5 was measured by incubating recombinant human (rh) KLK5 protease (R&D Systems, Cat No. 1108-SE) with a specific fluorogenic peptide substrate Boc-V-P-R-AMC (R& D Systems, Cat No. ES011). The substrate is conjugated to a quenched fluorescent group. Upon cleavage of the adjacent peptide bond, the fluorescent signal is released, resulting in a measureable emission at […] when excited at 340 nm wavelength. Increase in fluorescence reading indicates an increase in rhKLK5 activity. The test compounds were reacted with recombinant rhKLK5 protease for 60 seconds followed by addition of Boc-V-P-R-AMC Fluorogenic Peptide Substrate. After 60 seconds of incubation, fluorescence was measured at 340 nm (Excitation wavelength) and 485 nm (Emission wavelength) every 1 minute for 7 minutes. Rate (kinetics) of enzyme activity was calculated as follows: Rate of enzyme activity=Change of fluorescent reading (after background correction)/Change of reaction time (min). Percent change of activity due to a test compound was calculated by comparing rate of enzyme activity in the presence of the test compound to that of a control without the test compound and statistical significance was calculated using a t-test. Additionally, the rate of activity of the compounds was compared to that of salicylic acid.

SMILES | KLK5 activity compared to that of salicylic acid | percentage of KLK5 activity relative to salicylic acid (salicylic acid as the benchmark) [%]
O=C(O)c1c(O)ccc2ccccc12 [2-hydroxy-1-napthoic acid] | substantially less KLK5 activity than salicylic acid | –
O=C(O)c1ccc2ccccc2c1O [1-hydroxy-2-napthoic acid] | substantially less KLK5 activity than salicylic acid | –
O=C(O)c1cc2ccccc2cc1O [3-hydroxy-2-napthoic acid] | potent stimulator of KLK5, as it is increased beyond salicylic acid | –
O=C(O)c1ccccc1O [salicylic acid] | – | 100
